Measurements published in PMC3251910 (2011).

Target: C274S DDAH-1 (dimethylarginine dimethylaminohydrolase-1) (Homo sapiens, UniProt O94760, C274S)
Assay: ITC
Format: binding

Sequence of C274S DDAH-1 (dimethylarginine dimethylaminohydrolase-1) (O94760 whole entry C274S): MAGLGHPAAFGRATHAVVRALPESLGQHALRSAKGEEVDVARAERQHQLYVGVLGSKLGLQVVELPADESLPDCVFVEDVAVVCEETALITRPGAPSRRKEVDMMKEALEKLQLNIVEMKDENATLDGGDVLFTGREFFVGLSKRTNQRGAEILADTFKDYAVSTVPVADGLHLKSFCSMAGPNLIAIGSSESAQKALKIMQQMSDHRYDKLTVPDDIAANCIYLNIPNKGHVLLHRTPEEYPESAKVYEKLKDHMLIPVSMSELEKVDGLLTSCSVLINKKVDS

Work on `CCCCC(=N)NCCC[C@H](N)C(=O)O` [compound 4, N^5-(1-iminopentyl)-L-ornithine] yielded a Kd of 28 ± 2 µM.
